Test results from US20130039928A1, “COMPOSITIONS AND METHODS FOR REVERSING CORTICOSTEROID RESISTANCE OR TREATING RESPIRATORY INFECTIONS” (priority 2010, published 2013).
“Also recorded” adds a separate entry of the source.

Key:
[1] = tested on: nontypeable Haemophilus influenzae; details: COPD alveolar macrophages, compared to vehicle
Protocol: Human alveolar macrophages were purified from individual BAL samples by centrifugation and seeded onto 6-well tissue culture plates. After incubation for 2 h, non-adherent cells were removed and the adherent cells were incubated with R, S-sulforaphane (5 μM; LKT Laboratories, Inc., St. Paul, Minn.) and or DMSO in RPMI 1640 culture medium with 10% FBS and 1% penicillin-streptomycin (Invitrogen, Carlsbad, Calif.). After 16-20 h, adherent cells were scraped, suspended in RPMI 1640 culture media and plated onto 96-well tissue culture plates for bacterial phagocytosis and clearance assays. […] For MARCO antibody-depletion, alveolar macrophages were incubated with human anti-MARCO antibody (1 μg/ml; (Hycult, Uden, The Netherlands) for 4 hours prior to bacterial challenge.
Sputum isolates of nontypeable H. influenzae and P. aeruginosa obtained from patients with COPD at the Department of Veterans Affairs, Western New York Healthcare System were used (S. Sethi, N. Evans, B. J. Grant, T. F. Murphy, N Engl J Med 347, 465 (Aug. 15, 2002); C. S. Berenson, M. A. Garlipp, L. J. Grove, J. Maloney, S. Sethi, J Infect Dis 194, 1375 (Nov. 15, 2006); T. F. Murphy et al., Am J Respir Crit Care Med 177, 853 (Apr. 15, 2008); T. F. Murphy, A. L. Brauer, A. T. Schiffmacher, S. Sethi, Am J Respir Crit Care Med 170, 266 (Aug. 1, 2004)). […]
Bacterial phagocytosis was quantified using a flow cytometry analysis.

[2] = tested on: nontypeable Haemophilus influenza (NTHI); details: wild-type mice after 6 months of chronic exposure to cigarette smoke
Protocol: C57BL/6J mice were housed under controlled conditions for temperature and humidity, using a 12-hour light/dark cycle. At 8 weeks of age, mice were exposed to CS for (2.5 h/day for 5 days/week) for 1 week or 6 months using a machine that produces cigarette smoke (TE-10, Teague Enterprises) and reference cigarettes (2R4F) with a total suspended particle concentration of 250 mg/m^3 as previously described (T. E. Sussan et al., Proc Natl Acad Sci USA, (Dec. 22, 2008)). Following exposure to CS, mice were inoculated with PA or NTHI at a dose of 10^3 CFU in 50 μl of PBS intranasally. For sulforaphane administration (0.5 mg/mouse of R, S-sulforaphane in PBS), a nebulizer (Aerogen, Inc., Galway, Ireland) designed specifically for small animals was used.
BAL fluid analysis and cell counts with differential staining were carried out as described previously (T. Rangasamy et al., J Clin Invest 114, 1248 (November, 2004)). For analyzing bacterial colonization in lungs, 100 μl of BAL fluid were diluted serially in sterile 0.9% NaCl and aseptically plated and cultured on appropriate (blood [PA] or chocolate [NTHI]) agar plates. After 24 h, the number of CFU was counted.

GSH = details: COPD alveolar macrophages, 5 μM for 16 h
Protocol: (§1) For inducing corticosteroid resistance, PMs were exposed to cigarette smoke condensate (CSC, 100 μg/ml; Murty Pharmaceuticals, Lexington, Ky.) for 16 h. Exposure to S-nitrosoglutathione (GSNO, 10 μM) was limited to 4 h. […] For assessing corticosteroid responsiveness, macrophages were incubated with dexamethasone (1 μM, Sigma) for 1 h followed by LPS (100 ng/ml, Sigma) for additional 4 h.
(§2) HDAC activity was measured using a fluorescent derivative of ε-acetyl-lysine from Enzo life sciences (Farmingdale, N.Y.) according to the manufacturer's recommendations. HDAC2 was immunoprecipitated for analysis of enzymatic activity.

HDAC = details: COPD alveolar macrophages, versus vehicle
Protocol: as §1, §2

IL-8 = assay: Corticosteroid responsiveness: basal and LPS-induced IL-8 secretion by alveolar macrophages; type: cell-based, human
Protocol: as §1
For human IL-8 and mouse IL-6 and MCP-1 proteins, Quantikine ELISA kits from R&D systems (Minneapolis, Minn.) were used according to the manufacturer's instructions.

IL-8 gene = details: sulforaphane treatment with DEX
Protocol: as §1
(§3) Total RNA was extracted from the cells by lysis and specific binding to a silica membrance (Qiagen RNeasy kit, Qiagen, Valencia, Calif.), and qRT-PCR was performed by using primers and probe sets for human IL-8, NQO1, GCLM, and iNOS (Assay-on-Demand, Applied Biosystems, Foster City, Calif.). A real-time fluorescent PCR system (ABI 7000 Taqman system, Applied Biosystems) was used to perform these assays. β-actin was used as the normalization control.

HDAC2 = type: cell-based, human; details: COPD alveolar macrophages
Protocol: as §1
(§4) All immunoblots were performed by using protocols as described previously (Barnes, P. J., N Engl J Med 343, 269-280 (2000)). Rabbit anti-HDAC2 antibody from Santa Cruz Biotechnology (Santa Cruz, Calif.) was used at 1:500 dilutions. Rabbit anti-5-nitroso-cysteine antibody from Alpha diagnostics was used at 1:500 dilutions. Rabbit anti-nitro-tyrosine antibody from Cell Signaling Technology, was used at 1:250 dilution. Rabbit anti-ubiquitin antibody from Santa Cruz Biotechnology (Santa Cruz, Calif.) was used at 1:1000 dilutions. Rabbit anti-GR antibody from Santa Cruz Biotechnology (Santa Cruz, Calif.) was used at a dilution of 1:1000. Rabbit anti-MMP9 antibody from Sigma Aldrich was used at 1:500 dilutions. Rabbit anti-acetyl-lysine antibody from Abcam was used at 1:750 dilutions. Rabbit anti-lamin-B1 from Santa Cruz Biotechnology (Santa Cruz, Calif.) was used at 1:1000 dilutions as a loading control. The Image J program was used for densitometry analyses.
as §3

NO = NO levels and iNOS expression in alveolar macrophages; type: cell-based, human; details: COPD alveolar macrophages, vs vehicle
Protocol: as §1, §2, §3

glucocorticoid receptor = assay: Acetylated glucocorticoid receptor levels in alveolar macrophages; type: cell-based, human; details: compared to vehicle control
Protocol: as §4

C[S+]([O-])CCCCN=C=S (stereo not shown) [sulforaphane]
phagocytosis of FITC-labeled nontypeable Haemophilus influenzae [1]: significantly enhanced phagocytosis | bacterial colonization (NTHI) in the lungs [2]: inhibited bacterial colonization | GSH levels (GSH): significantly elevated | enzymatic activity of total HDAC (HDAC): significantly elevated | DEX sensitivity (histone acetylation on IL-8 promoter, IL-8 expression) (IL-8; in the presence of buthionine sulfoximine (BSO)): failed to improve DEX sensitivity | IL-8 levels (IL-8; sulforaphane alone, basally and after LPS treatment): significantly reduced IL-8 levels | DEX's inhibitory effect on basal and LPS-induced IL-8 secretion (fold reduction) (IL-8; sulforaphane treatment then DEX, P<0.01, N=25 patients): 5 fold | expression of the IL-8 gene (IL-8 gene): concomitant reduction | HDAC2 mRNA levels (HDAC2): without altering the levels of HDAC2 mRNA; also recorded: no effect on HDAC2 mRNA expression | HDAC2 protein levels (HDAC2): up-regulated HDAC2 protein levels | NO levels (NO): significantly lower levels; also recorded: suppressed NO generation | iNOS expression (NO): significantly lower levels | levels of acetylated-glucocorticoid receptor (glucocorticoid receptor): significant decrease in the levels of acetylated-glucocorticoid receptor
